The source made the active and inactive calls. The rule behind the calls is not given here.
Legend:
[1] = (§1) Cytotoxicity against human KB-3-1 cells after 96 hrs by microculture tetrazolium assay; type: functional, cell-based; details: KB 3-1, 96 h
[2] = Binding affinity to pBS plasmid 117 base-pair DNA fragment assessed as half life of DNA alkylation by gel shift assay
MC-38 [3] = test: Toxicity in mouse Colon 38 cells xenografted B6D2F1 mouse assessed as inhibition of tumor growth at 4 mg/kg, iv administered twice daily; type: functional, organism-based; parameters: dose 4 mg/kg
L1210 = test: Cytotoxicity against mouse L1210 cells after 48 hrs by microculture tetrazolium assay; type: functional, cell-based
MC-38 [4] = test: Antitumor activity against mouse Colon 38 cells xenografted B6D2F1 mouse assessed as inhibition of tumor growth at 2 mg/kg, iv administered twice daily; type: functional
KB 3-1 = test: as §1; type: functional, cell-based
MC-38 [5] = test: Antitumor activity against mouse Colon 38 cells xenografted B6D2F1 mouse assessed as inhibition of tumor growth at 4 mg/kg, iv administered twice daily; type: functional
MC-38 [6] = test: Antitumor activity against mouse Colon 38 cells xenografted B6D2F1 mouse assessed as tumor free state at 4 mg/kg, iv administered twice daily on day 90 post drug dose; type: functional, organism-based; parameters: dose 4 mg/kg
[7] = Mus musculus, L1210, 48 h, read-out: IC50

T1/2 [2]	SMILES	IC50 [1]	IC50 (L1210; [7])	also measured
1 h	COc1cc2c(c3c1c(=O)c1cc4ccccc4cc1n3C)[C@@H](O)[C@@H](OC(=O)/C=C/c1ccc(Cl)c(Cl)c1)C(C)(C)O2 (racemic)	6 nM	35 nM	Activity (MC-38 [3]): Toxic; inhibition in vivo at 2 mg/kg (MC-38 [4]): 90%
–	COc1cc2c(c3c1c(=O)c1cc4ccccc4cc1n3C)[C@@H](O)[C@@H](OC(=O)/C=C/c1ccc(C(F)(F)F)cc1)C(C)(C)O2 (racemic)	20 nM	90 nM	–
–	COc1cc2c(c3c1c(=O)c1cc4ccccc4cc1n3C)[C@@H](OC(C)=O)[C@@H](OC(=O)/C=C/c1cccc(Cl)c1)C(C)(C)O2 (racemic)	–	–	solubility (KB 3-1): Not soluble; IC50 (L1210; l1210): Insoluble
–	COc1cc2c(c3c1c(=O)c1cc4ccccc4cc1n3C)[C@@H](OC(C)=O)[C@@H](OC(=O)/C=C/c1cccc(Br)c1)C(C)(C)O2 (racemic)	120 nM	600 nM	–
> 24 h	COc1cc2c(c3c1c(=O)c1cc4ccccc4cc1n3C)[C@@H](OC(C)=O)[C@@H](OC(=O)/C=C/c1ccc(Cl)c(Cl)c1)C(C)(C)O2 (racemic)	50 nM	400 nM	inhibition in vivo at 4 mg/kg (MC-38 [5]): 84%
–	COc1ccc(/C=C/C(=O)O[C@@H]2[C@H](OC(C)=O)c3c(cc(OC)c4c(=O)c5cc6ccccc6cc5n(C)c34)OC2(C)C)cc1 (racemic)	240 nM	1200 nM	–
1 h	COc1cc2c(c3c1c(=O)c1cc4ccccc4cc1n3C)[C@@H](O)[C@@H](OC(=O)/C=C/c1ccc(Br)cc1)C(C)(C)O2 (racemic)	6 nM	50 nM	–
0.0833 h	COc1cc2c(c3c1c(=O)c1cc4ccccc4cc1n3C)[C@@H](O)[C@@H](OC(C)=O)C(C)(C)O2 (racemic)	160 nM	620 nM	–
0.333 h	COc1cc2c(c3c1c(=O)c1cc4ccccc4cc1n3C)[C@@H](O)[C@@H](OC(=O)/C=C/c1ccccc1)C(C)(C)O2 (racemic)	30 nM	120 nM	–
–	COc1ccc(/C=C/C(=O)O[C@@H]2[C@H](OC(C)=O)c3c(cc(OC)c4c(=O)c5cc6ccccc6cc5n(C)c34)OC2(C)C)cc1OC (racemic)	150 nM	900 nM	–
–	COc1cc2c(c3c1c(=O)c1cc4ccccc4cc1n3C)[C@@H](O)[C@@H](OC(=O)/C=C/c1ccccc1Cl)C(C)(C)O2 (racemic)	20 nM	50 nM	–
–	COc1cc2c(c3c1c(=O)c1cc4ccccc4cc1n3C)[C@@H](OC(C)=O)[C@@H](OC(=O)/C=C/c1ccc(C(F)(F)F)cc1)C(C)(C)O2 (racemic)	300 nM	1500 nM	–
6 h	COc1cc2c(c3c1c(=O)c1cc4ccccc4cc1n3C)[C@@H](OC(C)=O)[C@@H](OC(=O)/C=C/c1ccc(Cl)cc1)C(C)(C)O2 (racemic)	70 nM	500 nM	–
–	COc1cc2c(c3c1c(=O)c1cc4ccccc4cc1n3C)[C@@H](OC(C)=O)[C@@H](OC(=O)/C=C/c1ccc(Cl)cc1Cl)C(C)(C)O2 (racemic)	90 nM	600 nM	–
–	COc1cc2c(c3c1c(=O)c1cc4ccccc4cc1n3C)[C@@H](OC(C)=O)[C@@H](OC(=O)/C=C/c1ccc([N+](=O)[O-])cc1)C(C)(C)O2 (racemic)	140 nM	500 nM	–
–	COc1cc2c(c3c1c(=O)c1cc4ccccc4cc1n3C)[C@@H](O)[C@@H](OC(=O)/C=C/c1cccc(Cl)c1)C(C)(C)O2 (racemic)	20 nM	60 nM	–
1 h	COc1cc2c(c3c1c(=O)c1cc4ccccc4cc1n3C)[C@@H](O)[C@@H](OC(=O)/C=C/c1ccc(Cl)cc1)C(C)(C)O2 (racemic)	8 nM	40 nM	–
–	COc1cc2c(c3c1c(=O)c1cc4ccccc4cc1n3C)[C@@H](OC(C)=O)[C@@H](OC(=O)/C=C/c1ccccc1Cl)C(C)(C)O2 (racemic)	90 nM	600 nM	–
–	COc1cc2c(c3c1c(=O)c1cc4ccccc4cc1n3C)[C@@H](O)[C@@H](OC(=O)/C=C/c1cccc(C(F)(F)F)c1)C(C)(C)O2 (racemic)	15 nM	100 nM	–
1.5 h	COc1cc2c(c3c1c(=O)c1cc4ccccc4cc1n3C)[C@@H](OC(C)=O)[C@@H](OC(=O)/C=C/c1ccccc1)C(C)(C)O2 (racemic)	150 nM	1100 nM	–
6 h	COc1cc2c(c3c1c(=O)c1cc4ccccc4cc1n3C)[C@@H](OC(C)=O)[C@@H](OC(=O)/C=C/c1ccc(Br)cc1)C(C)(C)O2 (racemic)	80 nM	700 nM	–
–	COc1ccc(/C=C/C(=O)O[C@@H]2[C@H](O)c3c(cc(OC)c4c(=O)c5cc6ccccc6cc5n(C)c34)OC2(C)C)cc1 (racemic)	30 nM	130 nM	–
–	COc1cc2c(c3c1c(=O)c1cc4ccccc4cc1n3C)[C@@H](O)[C@@H](OC(=O)/C=C/c1cccc(Br)c1)C(C)(C)O2 (racemic)	20 nM	80 nM	–
–	COc1ccc(/C=C/C(=O)O[C@@H]2[C@H](O)c3c(cc(OC)c4c(=O)c5cc6ccccc6cc5n(C)c34)OC2(C)C)cc1OC (racemic)	80 nM	1100 nM	–
–	COc1cc2c(c3c1c(=O)c1cc4ccccc4cc1n3C)[C@@H](OC(C)=O)[C@@H](OC(=O)/C=C/c1cccc(C(F)(F)F)c1)C(C)(C)O2 (racemic)	60 nM	700 nM	–
–	COc1cc2c(c3c1c(=O)c1cc4ccccc4cc1n3C)[C@@H](O)[C@@H](OC(=O)/C=C/c1ccc(Cl)cc1Cl)C(C)(C)O2 (racemic)	6 nM	35 nM	–
0.5 h	COc1cc2c(c3c1c(=O)c1cc4ccccc4cc1n3C)[C@@H](OC(C)=O)[C@@H](OC(C)=O)C(C)(C)O2 (racemic)	100 nM	790 nM	inhibition in vivo at 4 mg/kg (MC-38 [5]): 99%; Activity (MC-38 [6]): Active
–	COc1cc2c(c3c1c(=O)c1cc4ccccc4cc1n3C)[C@@H](O)[C@@H](OC(=O)/C=C/c1ccc([N+](=O)[O-])cc1)C(C)(C)O2 (racemic)	30 nM	240 nM	–
